From patent publication US6583132B1, “Oxidant scavengers” (Duke University, priority 1993, dated 2003)

Key:
[1] = SOD activity (McCord and Fridovich); type: biochemical
Procedure: SOD activity can be monitored in the presence and absence of EDTA using the method of McCord and Fridovich (J. Biol. Chem. 244:6049 (1969)). The efficacy of a mimetic can be determined by measuring the effect of the mimetic on the growth of a SOD null E. coli strain versus a wild type strain. Specifically, wild type E. coli (AB1157) and SOD null E. coli. (JI132) can be grown in M9 medium containing 0.2% casamino acids and 0.2% glucose at pH 7.0 and 37° C.; growth can be monitored in terms of turbidity followed at 700 nm spectrophotometrically. Active mimetics can be tested for toxicity in mammalian cell culture by measuring lactate dehydrogenase (LDH) release. Specifically, rat L2 cells (a lung Type II like cell; (Kaighn and Douglas, J. Cell Biol. 59:106a (1973)) can be grown in Ham's F-12 medium with 10% fetal calf serum supplement at pH 7.4 and 37° C.; cells can be seeded at equal densities in 24 well culture dishes and grown to approximately 90% confluence; SOD mimetics can be added to the cells at log doses (eg micromolar doses in minimal essential medium (MEM)) and incubated for 24 hours. Toxicity can be assessed by morphology and by measuring the release of the cytosolic injury marker, LDH (eg on a thermokinetic plate reader), as described by Vassault (In: Methods of Enzymatic Analysis, Bergmeyer (ed) pp. 118-26 (1983); oxidation of NADH is measured at 340 nm). Efficacy of active mimetics can be assessed by determining their ability to protect mammalian cells against methylviologen (paraquat)-induced toxicity. Specifically, rat L2 cells grown as described above and seeded into 24 well dishes can be pre-incubated with various concentrations of the SOD mimetic and then incubated with a concentration of methylviologen previously shown to produce an LC75 in control L2 cells. Efficacy of the mimetic can be correlated with a decrease in the methylviologen-induced LDH release (St. Clair et al, FEBS Lett. 293:199 (1991)). The efficacy of SOD mimetics can be tested in vivo with mouse and/or rat models using both aerosol administration and parenteral injection. For example, male Balb/c mice can be randomized into 4 groups of 8 mice each to form a standard 2×2 contingency statistical model. Animals can be treated with either paraquat (40 mg/kg, ip) or saline and treated with SOD mimetic or vehicle control. Lung injury can be assessed 48 hours after paraquat treatment by analysis of bronchoalveolar lavage fluid (BALF) damage parameters (LDH, protein and % PMN) as previously described (Hampson et al, Tox. Appl. Pharm. 98:206 (1989); Day et al, J. Pharm. Methods 24:1 (1990)). […]
^2SOD activity determined as described by McCord and Fridovich, J. Biol. Chem. […] (1969).

[2] = test system: calf pulmonary artery endothelial cell cultures (CPA-47); assay: Paraquat-induced injury of CPA-47 cells, LDH release; type: cell-based; details: varying concentrations; Paraquat 2 mM, 24 hours
Procedure: Calf pulmonary artery endothelial cell cultures (CPA-47) were grown to confluence in Ham's F-12K medium with 10% fetal bovine serum at pH 7.4 and 37° C. Cells were then trypsinized and seeded at equal densities in 24 well plates and grown to 90% confluence. Cells were washed and pre-incubated for 1 hour with varying concentrations of ZnTBAP in MEM or MEM only. Paraquat (2 mM) was added and allowed to incubate for 24 hours. Cell injury was quantitated by measuring the release of cellular lactate dehydrogenase (LDH) into the medium.

[3] = test system: Calf pulmonary endothelial cell (CPA-47) line; assay: Glucose oxidase hydrogen peroxide injury of CPA-47, Cr^51 release; type: cell-based; details: glucose oxidase 100 Mu/ml, 4 hours; 1 hour pretreatment
Procedure: (§1) Calf pulmonary endothelial cell (CPA-47) line was grown to near confluence in 12-well plates with F-12K medium containing 10% fetal calf serum. CPA-47 cells were loaded with Cr^51 as previously described by Simon et al J. Clin. Invest. 78:1375 (1986) in high glucose minimum essential medium (DMEM). Cells were pretreated with MnTBAP (100 μM) for 1 hour and then exposed to various concentrations of hydrogen peroxide generator, glucose oxidase, for 4 hours. Cell injury was then quantitated as the specific Cr^51 release from CPA-47 cells which has been adjusted for spontaneous Cr51 release.
as §1, with “(J.” for “J.”, “(1986))” for “(1986)”, “various concentrations of either: (A) MnTBAP; (B) MnTMPyP; (C) ZnTBAP; or (D) CuZnSOD” for “MnTBAP (100 μM)”, “the” for “various concentrations of”, “oxidase (100 Mu/ml),” for “oxidase,”, “Cr^51” for “Cr51”

EC-SOD = target: T1, EC-SOD (Mus musculus, UniProt O09164); assay: Brain EC-SOD activity after diethyldithiocarbamate; type: in vivo; details: transgenic and nontransgenic mice, sacrificed one hour later
T1 construct: The brains were removed and assayed for EC-SOD and CuZn SOD activity as described above; from tissue; host or cells: mouse brain; EC-SOD separated from the homogenate on concanavalin A sepharose
T1 sequence (O09164 25-251): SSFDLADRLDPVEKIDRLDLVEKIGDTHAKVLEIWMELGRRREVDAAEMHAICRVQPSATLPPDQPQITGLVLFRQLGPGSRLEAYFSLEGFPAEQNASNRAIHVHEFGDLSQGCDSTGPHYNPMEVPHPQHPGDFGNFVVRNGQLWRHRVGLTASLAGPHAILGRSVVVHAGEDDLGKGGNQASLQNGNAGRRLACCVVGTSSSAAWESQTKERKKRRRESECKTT
Procedure: (§2) Separation of SOD isoenzymes by concanavalin A sepharose chromatography: Tissues taken from 3 mice were weighed, then combined and homogenized in 10 volumes of ice-cold 50 mM potassium phosphate, pH 7.4, with 0.3 M. KBr, 3 mM diethylenetriaminepentaacetic acid, and 0.5 mM phenylmethylsulfonyl fluoride. Separation of EC-SOD from CuZn SOD and Mn SOD was accomplished by passing tissue homogenates over a concanavalin A sepharose column as described (Marklund et al, Clin. Chim. Acta 126:4 (1982)). SOD activity: EC-SOD activity and total SOD activity (CuZn SOD and Mn SOD) remaining after EC-SOD extraction were measured by inhibition of cytochrome C reduction at pH 10, as previously described (Crapo et al, Methods Enzymol. 53:382 (1978)). Total protein was determined by the BCA protein assay (Pierce, Rockford, Ill.). The SOD activities were then expressed as units/mg total protein. To determine the extent of EC-SOD and CuZn SOD inhibition by diethyldithiocarbamate, mice were given diethyldithiocarbamate and sacrificed one hour later. The brains were removed and assayed for EC-SOD and CuZn SOD activity as described above.

CuZn SOD = target: T2, CuZn SOD (Mus musculus, UniProt P08228); assay: Brain CuZn SOD activity after diethyldithiocarbamate; type: in vivo; details: transgenic and nontransgenic mice, sacrificed one hour later
T2 construct: from tissue; host or cells: mouse brain; homogenate fraction left after removal of EC-SOD on concanavalin A sepharose
Procedure: as §2

[4] = CNS oxygen toxicity, 6 ATA hyperbaric oxygen exposure; type: in vivo, mice; details: 6 ATA oxygen 25 minutes, DDC 400 mg/kg i.p. or LNNA 20 mg/kg i.p.
Procedure: Oxygen exposures: 7-8 week old mice were exposed to hyperbaric oxygen five at a time in a small-animal chamber (Bethlehem, Pa.). After flushing the chamber with pure oxygen, compression to 50 meters (6 ATA) was performed within 5 minutes. The oxygen concentration in the chamber was monitored continuously with a Servomex oxygen analyzer (model 572, Sybron, Norwood, Mass.) and maintained at ≳99%. The carbon dioxide concentration was analyzed from intermittent samples of chamber gas with an IR detector (IR Industries, Santa Barbara, Calif.) and was not allowed to rise above 0.1%. The chamber temperature was maintained at 25-26° C., but the compression of oxygen in the chamber raised the temperature to 30-32° C. transiently, but an environmental control system restored the normal chamber temperature within 3 minutes. […] The mice were observed continuously for signs of oxygen toxicity from the beginning of the exposure until 4 hours after removal from the chamber. The time to the first generalized convulsion (seizure latency) and the time to death were recorded. These exposure conditions are designed to cause CNS oxygen toxicity without appreciable evidence of pulmonary oxygen toxicity.
Treatment with diethyldithiocarbamate: One hour prior to exposure to 6 ATA oxygen, mice were given either i.p. injections of either 0.008 cc/g saline or 400 mg/kg diethyldithiocarbamate dissolves in normal saline (0.008 cc/g). The mice were then exposed to 6 ATA oxygen for 25 minutes as described above.
Treatment with β-mercaptoethanol: One hour prior to exposure to 6 ATA oxygen, mice were given either i.p. injections of 0.008 cc/g saline or 180 mg/kg β-mercaptoethanol (0.008 cc/g). This dose of β-mercaptoethanol was selected because it contains an equal number of reducing thiols as the dose of diethyldithiocarbamate. The mice were then exposed to 6 ATA oxygen for 30 minutes as described above.
Treatment with N-ω-nitro-L-arginine, an inhibitor of nitric oxide synthase: Ten minutes prior to beginning compression, 0.008 cc/g saline or 20 mg/kg (0.008 cc/g) N-ω-nitro-L-arginine dissolved in sterile water was given i.p to the transgenic and nontransgenic mice. Mice were then exposed at 6 ATA oxygen for 25 or 75 minutes as described above.

T2 sequence (P08228 whole entry): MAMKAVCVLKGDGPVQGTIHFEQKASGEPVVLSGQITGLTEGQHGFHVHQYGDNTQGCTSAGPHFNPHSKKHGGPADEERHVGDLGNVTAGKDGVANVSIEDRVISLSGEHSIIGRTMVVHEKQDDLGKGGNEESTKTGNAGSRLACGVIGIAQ

SMILES	SOD activity, fold less than MnTBAP [1] [fold]	paraquat-induced LDH release / injury [2]	hydrogen peroxide-induced endothelial cell injury [3]	inhibition at 400 mg/kg (EC-SOD) [%]	inhibition at 400 mg/kg (CuZn SOD) [%]	Survival ([4]; nontransgenic mice) [%]	Survival ([4]; transgenic mice) [%]
O=C(O)c1ccc(-c2c3nc(c(-c4ccc(C(=O)O)cc4)c4ccc([n-]4)c(-c4ccc(C(=O)O)cc4)c4nc(c(-c5ccc(C(=O)O)cc5)c5ccc2[n-]5)C=C4)C=C3)cc1.[Zn+2] [ZnTBAP, reference compound]	10	does not protect against paraquat-induced injury	does not reduce	–	–	–	–
CCN(CC)C(=S)S [diethyldithiocarbamate]	–	–	–	80	60	93	100
